Patent publication US20240218022A1, “ANTI-VISTA MACROCYCLIC PEPTIDES AND COMPOSITIONS” (BRISTOL-MYERS SQUIBB COMPANY, priority 2022, published 2024)
Positions of bridges follow the written chain, without caps; N, C: chain ends. Non-standard residues stand in square brackets, D forms with d. Residues, ends and D or L forms follow the SMILES beside them. Cit = NC(=O)NCCC[C@H](N)C(=O)O; Ahp(2) = CCCCC[C@H](N)C(=O)O; NHexGly = CCCCCCNCC(=O)O; Nle = CCCC[C@H](N)C(=O)O

biological target: T1, mouse VISTA (mVISTA) (Mus musculus, UniProt Q9D659); test: Cell-Based Binding High-Content Assay For mVISTA (HC CBA mVISTA); settings: 293T cells expressing mouse VISTA; competition with biotinylated peptide (2 nM); read-out: HC CBA mVISTA IC50
T1 construct: expressed in transfected cells; host or cells: Human embryonic kidney 293T cells
T1 sequence (Q9D659 33-308): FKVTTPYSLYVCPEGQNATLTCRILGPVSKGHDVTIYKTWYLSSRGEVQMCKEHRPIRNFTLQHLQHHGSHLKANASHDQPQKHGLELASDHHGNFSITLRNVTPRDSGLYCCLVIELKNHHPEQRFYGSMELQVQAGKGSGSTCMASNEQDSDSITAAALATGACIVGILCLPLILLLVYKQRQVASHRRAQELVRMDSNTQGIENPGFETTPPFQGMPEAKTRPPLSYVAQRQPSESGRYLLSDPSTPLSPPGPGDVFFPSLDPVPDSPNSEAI
How it was run: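 Read-out: Alexa 647–streptavidin signal imaged on fixed, Hoechst-stained mVISTA-293T cells, with IC50 taken from a four-parameter logistic curve. Compounds competed with 2 nM biotinylated peptide for 30 min at room temperature, tested under both no-wash and wash (1 h compound, media exchange, 1 h) formats.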

Row | IC50 [µM] | Structure (SMILES)
1 | 0.0171 | CCCCCCN1CC(=O)N[C@@H](Cc2ccc(O)cc2)C(=O)N[C@@H](CCCCC)C(=O)N[C@@H](CC(=O)O)C(=O)N[C@@H](CCCNC(=N)N)C(=O)N[C@@H](CC(C)C)C(=O)N[C@@H](CCCCC)C(=O)N2CCC[C@H]2C(=O)N[C@@H](C(C)C)C(=O)N[C@@H](CC(=O)O)C(=O)N[C@H](C(=O)NCC(=O)O)CSCC(=O)N[C@@H](Cc2ccccc2)C(=O)N[C@@H](Cc2ccc(O)cc2)C(=O)N[C@@H](CC(=O)O)C1=O [Example 1013] ({CH2CO}-FYD[NHexGly]Y[Ahp(2)]DRL[Ahp(2)]PVDCG-OH; thioether N-14)
2 | 0.0184 | CCCCCCN1CC(=O)N[C@@H](Cc2ccc(O)cc2)C(=O)N[C@@H](CC(C)C)C(=O)N[C@@H](CC(=O)O)C(=O)N[C@@H](CCCNC(=N)N)C(=O)N[C@@H](CC(C)C)C(=O)N[C@@H](CCCCC)C(=O)N2CCC[C@H]2C(=O)N[C@@H](C(C)C)C(=O)N[C@@H](CC(=O)O)C(=O)N[C@H](C(=O)NCC(N)=O)CSCC(=O)N[C@@H](Cc2ccccc2)C(=O)N[C@@H](Cc2ccc(O)cc2)C(=O)N[C@@H](CC(=O)O)C1=O [Example 1014] ({CH2CO}-FYD[NHexGly]YLDRL[Ahp(2)]PVDCG-NH2; thioether N-14)
3 | 0.0087 | CCCCCCN1CC(=O)N[C@@H](Cc2ccc(O)cc2)C(=O)N[C@@H](CCCCC)C(=O)N[C@@H](CC(=O)O)C(=O)N[C@@H](CCCNC(=N)N)C(=O)N[C@@H](CC(C)C)C(=O)N[C@@H](CCCCC)C(=O)N2CCC[C@H]2C(=O)N[C@@H](C(C)C)C(=O)N[C@@H](CC(=O)O)C(=O)N[C@H](C(=O)NCC(N)=O)CSCC(=O)N[C@@H](Cc2ccccc2)C(=O)N[C@@H](Cc2ccc(O)cc2)C(=O)N[C@@H](CC(=O)O)C1=O [Example 1015] ({CH2CO}-FYD[NHexGly]Y[Ahp(2)]DRL[Ahp(2)]PVDCG-NH2; thioether N-14)
4 | 0.021 | CCCCCCN1CC(=O)N[C@@H](Cc2ccc(O)cc2)C(=O)N[C@@H](CC(C)C)C(=O)NCC(=O)N[C@@H](CCCNC(=N)N)C(=O)N[C@@H](CC(C)C)C(=O)N[C@@H](CCCCC)C(=O)N2CCC[C@H]2C(=O)N[C@@H](C(C)C)C(=O)N[C@@H](CC(=O)O)C(=O)N[C@H](C(=O)NCC(=O)O)CSCC(=O)N[C@@H](Cc2ccccc2)C(=O)N[C@@H](Cc2ccc(O)cc2)C(=O)N[C@@H](CC(=O)O)C1=O [Example 1016] ({CH2CO}-FYD[NHexGly]YLGRL[Ahp(2)]PVDCG-OH; thioether N-14)
5 | 0.034 | CCCCCCN1CC(=O)N[C@@H](Cc2ccc(O)cc2)C(=O)N[C@@H](CCCC)C(=O)NCC(=O)N[C@@H](CCCNC(=N)N)C(=O)N[C@@H](CC(C)C)C(=O)N[C@@H](CCCCC)C(=O)N2CCC[C@H]2C(=O)N[C@@H](C(C)C)C(=O)N[C@@H](CC(=O)O)C(=O)N[C@H](C(=O)NCC(N)=O)CSCC(=O)N[C@@H](Cc2ccccc2)C(=O)N[C@@H](Cc2ccc(O)cc2)C(=O)N[C@@H](CC(=O)O)C1=O [Example 1017] ({CH2CO}-FYD[NHexGly]Y[Nle]GRL[Ahp(2)]PVDCG-NH2; thioether N-14)
6 | 0.0339 | CCCCCCN1CC(=O)N[C@@H](Cc2ccc(O)cc2)C(=O)N[C@@H](C(C)C)C(=O)NCC(=O)N[C@@H](CCCNC(=N)N)C(=O)N[C@@H](CC(C)C)C(=O)N[C@@H](CCCCC)C(=O)N2CCC[C@H]2C(=O)N[C@@H](C(C)C)C(=O)N[C@@H](CC(=O)O)C(=O)N[C@H](C(=O)NCC(=O)O)CSCC(=O)N[C@@H](Cc2ccccc2)C(=O)N[C@@H](Cc2ccc(O)cc2)C(=O)N[C@@H](CC(=O)O)C1=O [Example 1018] ({CH2CO}-FYD[NHexGly]YVGRL[Ahp(2)]PVDCG-OH; thioether N-14)
7 | 0.0079 | CCCCCCN1CC(=O)N[C@@H](Cc2ccc(O)cc2)C(=O)N[C@@H](CCCC)C(=O)N[C@@H](CC(N)=O)C(=O)N[C@@H](CCCNC(N)=O)C(=O)N[C@@H](CC(C)C)C(=O)N[C@@H](CCCCC)C(=O)N2CCC[C@H]2C(=O)N[C@@H](C(C)C)C(=O)N[C@@H](CC(=O)O)C(=O)N[C@H](C(=O)NCC(=O)O)CSCC(=O)N[C@@H](Cc2ccccc2)C(=O)N[C@@H](Cc2ccc(O)cc2)C(=O)N[C@@H](CC(=O)O)C1=O [Example 1019] ({CH2CO}-FYD[NHexGly]Y[Nle]N[Cit]L[Ahp(2)]PVDCG-OH; thioether N-14)
8 | 0.0225 | CCCCCCN1CC(=O)N[C@@H](Cc2ccc(O)cc2)C(=O)N[C@@H](CCCC)C(=O)N[C@@H](CC(N)=O)C(=O)N[C@@H](CCCNC(=N)N)C(=O)N[C@@H](CC(C)C)C(=O)N[C@@H](CCCCC)C(=O)N2CCC[C@H]2C(=O)N[C@@H](C(C)C)C(=O)N[C@@H](CC(=O)O)C(=O)N[C@H](C(=O)NCC(=O)O)CSCC(=O)N[C@@H](Cc2ccccc2)C(=O)N[C@@H](Cc2ccc(O)cc2)C(=O)N[C@@H](CC(=O)O)C1=O [Example 1020] ({CH2CO}-FYD[NHexGly]Y[Nle]NRL[Ahp(2)]PVDCG-OH; thioether N-14)
9 | 0.0322 | CCCCCCN1CC(=O)N[C@@H](Cc2ccc(O)cc2)C(=O)N[C@@H](CCCC)C(=O)N[C@@H](CC(=O)O)C(=O)N[C@@H](CCCNC(=N)N)C(=O)N[C@@H](CC(C)C)C(=O)N[C@@H](CCCCC)C(=O)N2CCC[C@H]2C(=O)N[C@@H](C(C)C)C(=O)N[C@@H](CCCCC)C(=O)N[C@H](C(=O)NCC(=O)O)CSCC(=O)N[C@@H](Cc2ccccc2)C(=O)N[C@@H](Cc2ccc(O)cc2)C(=O)N[C@@H](CC(=O)O)C1=O [Example 1021] ({CH2CO}-FYD[NHexGly]Y[Nle]DRL[Ahp(2)]PV[Ahp(2)]CG-OH; thioether N-14)
10 | 0.0415 | CCCCCCN1CC(=O)N[C@@H](Cc2ccc(O)cc2)C(=O)N[C@@H](CCCC)C(=O)NCC(=O)N[C@@H](CCCNC(=N)N)C(=O)N[C@@H](CC(C)C)C(=O)N[C@@H](CCCCC)C(=O)N2CCC[C@H]2C(=O)N[C@@H](C(C)C)C(=O)N[C@@H](CCC(=O)O)C(=O)N[C@H](C(=O)NCC(=O)O)CSCC(=O)N[C@@H](Cc2ccccc2)C(=O)N[C@@H](Cc2ccc(O)cc2)C(=O)N[C@@H](CC(=O)O)C1=O [Example 1022] ({CH2CO}-FYD[NHexGly]Y[Nle]GRL[Ahp(2)]PVECG-OH; thioether N-14)
11 | 0.031 | CCCCCCN1CC(=O)N[C@@H](Cc2ccc(O)cc2)C(=O)N[C@@H](CCCC)C(=O)NCC(=O)N[C@@H](CCCNC(=N)N)C(=O)N[C@@H](CC(C)C)C(=O)N[C@@H](CCCCC)C(=O)N2CCC[C@H]2C(=O)N[C@@H](C(C)C)C(=O)NCC(=O)N[C@H](C(=O)NCC(=O)O)CSCC(=O)N[C@@H](Cc2ccccc2)C(=O)N[C@@H](Cc2ccc(O)cc2)C(=O)N[C@@H](CC(=O)O)C1=O [Example 1023] ({CH2CO}-FYD[NHexGly]Y[Nle]GRL[Ahp(2)]PVGCG-OH; thioether N-14)
12 | 0.0136 | CCCCCCN1CC(=O)N[C@@H](Cc2ccc(O)cc2)C(=O)N[C@@H](CCCC)C(=O)N[C@@H](CC(=O)O)C(=O)N[C@@H](CCCNC(=N)N)C(=O)N[C@@H](CC(C)C)C(=O)N[C@@H](CCCCC)C(=O)N2CCC[C@H]2C(=O)N[C@@H](C(C)C)C(=O)NCC(=O)N[C@H](C(=O)NCC(=O)O)CSCC(=O)N[C@@H](Cc2ccccc2)C(=O)N[C@@H](Cc2ccc(O)cc2)C(=O)N[C@@H](CC(=O)O)C1=O [Example 1024] ({CH2CO}-FYD[NHexGly]Y[Nle]DRL[Ahp(2)]PVGCG-OH; thioether N-14)
13 | 0.0306 | CCCCCCN1CC(=O)N[C@@H](Cc2ccc(O)cc2)C(=O)N[C@@H](CCCC)C(=O)N[C@@H](CC(=O)O)C(=O)N[C@@H](CCCNC(=N)N)C(=O)N[C@@H](CC(C)C)C(=O)N[C@@H](CCCCC)C(=O)N2CCC[C@H]2C(=O)N[C@@H](C(C)C)C(=O)N[C@@H](CC(C)C)C(=O)N[C@H](C(=O)NCC(=O)O)CSCC(=O)N[C@@H](Cc2ccccc2)C(=O)N[C@@H](Cc2ccc(O)cc2)C(=O)N[C@@H](CC(=O)O)C1=O [Example 1025] ({CH2CO}-FYD[NHexGly]Y[Nle]DRL[Ahp(2)]PVLCG-OH; thioether N-14)
14 | 0.0055 | CCCCCCN1CC(=O)N[C@@H](Cc2ccc(O)cc2)C(=O)N[C@@H](CCCCC)C(=O)N[C@@H](CC(N)=O)C(=O)N[C@@H](CCCNC(=N)N)C(=O)N[C@@H](CC(C)C)C(=O)N[C@@H](CCCCC)C(=O)N2CCC[C@H]2C(=O)N[C@@H](C(C)C)C(=O)N[C@@H](CC(N)=O)C(=O)N[C@H](C(=O)NCC(=O)O)CSCC(=O)N[C@@H](Cc2ccccc2)C(=O)N[C@@H](Cc2ccc(O)cc2)C(=O)N[C@@H](CC(=O)O)C1=O [Example 1026] ({CH2CO}-FYD[NHexGly]Y[Ahp(2)]NRL[Ahp(2)]PVNCG-OH; thioether N-14)
15 | 0.0368 | CCCCCCN1CC(=O)N[C@@H](Cc2ccc(O)cc2)C(=O)N[C@@H](CC(C)C)C(=O)N[C@@H](CC(N)=O)C(=O)N[C@@H](CCCNC(=N)N)C(=O)N[C@@H](CC(C)C)C(=O)N[C@@H](CCCCC)C(=O)N2CCC[C@H]2C(=O)N[C@@H](C(C)C)C(=O)N[C@@H](CC(N)=O)C(=O)N[C@H](C(=O)NCC(N)=O)CSCC(=O)N[C@@H](Cc2ccccc2)C(=O)N[C@@H](Cc2ccc(O)cc2)C(=O)N[C@@H](CC(=O)O)C1=O [Example 1027] ({CH2CO}-FYD[NHexGly]YLNRL[Ahp(2)]PVNCG-NH2; thioether N-14)
16 | 0.0052 | CCCCCCN1CC(=O)N[C@@H](Cc2ccc(O)cc2)C(=O)N[C@@H](CCCC)C(=O)NCC(=O)N[C@@H](CCCNC(=N)N)C(=O)N[C@@H](CC(C)C)C(=O)N[C@@H](CCCCC)C(=O)N2CCC[C@H]2C(=O)N[C@@H](C(C)C)C(=O)N[C@@H](CC(N)=O)C(=O)N[C@H](C(=O)NCC(=O)O)CSCC(=O)N[C@@H](Cc2ccccc2)C(=O)N[C@@H](Cc2ccc(O)cc2)C(=O)N[C@@H](CC(=O)O)C1=O [Example 1028] ({CH2CO}-FYD[NHexGly]Y[Nle]GRL[Ahp(2)]PVNCG-OH; thioether N-14)
